These results are taken from patent US20260085047A1, “TRIPHENYLAZOLE COMPOUND” (SHIRATORI PHARMACEUTICAL CO., LTD., priority 2022, published 2026).

One may read the Kd as the free concentration of one partner at which half of the binding sites on the other are occupied at equilibrium, for simple one-to-one binding.

Where only a bound is given, the exact number is not on record here.

The target of one test is T1, GST-FABP7 (Homo sapiens, UniProt O15540, K110R).
T1 construct: made in house; host or cells: E. coli BL21 (DE3)
T1 sequence (O15540 1-132 K110R): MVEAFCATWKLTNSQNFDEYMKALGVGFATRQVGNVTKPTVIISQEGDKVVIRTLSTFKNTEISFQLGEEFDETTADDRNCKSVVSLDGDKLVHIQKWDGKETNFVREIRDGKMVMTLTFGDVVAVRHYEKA
Description: Evaluation of FABP ligand affinity using ANS (GST-FABP7). In kind it is binding, mouse. The following applies: ANS fluorescence displacement; mean±SE of three measurements; read-out: Kd value of FABP for each ligand, GST-FABP7. As for the experimental part:
(§1) GST-FABP3, GST-FABP4, GST-FABP5, and GST-FABP7 were each expressed in E. coli [BL21 (DE3) strain], and then affinity purification was performed using a glutathione column.
(§2) Cloning of GST-FABP3, GST-FABP4, GST-FABP5 and GST-FABP7 vectors was performed by the following method. After reverse transcription of mRNA isolated from mouse heart into cDNA, the FABP3 gene (RefSeqID: NM_010174.1) and FABP4 gene (RefSeqID: NM_024406.2) were each amplified by PCR. These cDNAs were each inserted between the BamHI/EcoRI cleavage sites of a pGEX-2T vector (GE HealthCare Japan, Tokyo) using a DNA ligation kit (Takara Bio, Kusatsu) and an In-fusion kit (Takara Bio USA, CA, USA) to prepare vectors.
(§3) Purification of GST-binding proteins was performed using a GST purification kit (Takara Bio USA). After the E. coli were collected by centrifugation, the provided extraction buffer and aluminum oxide powder were added, and the mixture was crushed in a mortar. The centrifuged supernatant was added to the provided glutathione column and allowed to stand on ice for 30 minutes. The supernatant in the column was then discarded, and washing was performed with extraction buffer, followed by elution with elution buffer containing glutathione. The protein concentration of the elution product was calculated from the absorbance at 280 nm and then used for the ANS assay. 1-anilinonaphthalene-8-sulfonic acid (ANS, final concentration: […], in a solution of 10 mM KH2PO4 and 40 mM KCl at pH 7.4), which binds to FABP proteins and emits fluorescence, and FABP proteins (final concentration: […]), as well as various ligands at concentrations of 0 nM, 100 nM, 1,000 nM, 2,000 nM, and 4,000 nM (final) were incubated for 2 min, and then the fluorescence of ANS was measured (Ex/Em=355 nm/460 nm). The fluorescence intensity at each ligand concentration was converted to a relative value (%) to the ANS fluorescence intensity in the absence of ligand, and then the dissociation constant Kd (nM) was calculated by […] using the following equation.
(§4) The Kd values in the above table are indicated as the mean±SE of three measurements. […] Example Compounds 1 to 5 in the table may also be referred to as Compounds 1 to 5, respectively.

In test [1] the test system is MPTP-treated C57BL6 N mice (PD model animals). Description: Passive avoidance task in PD model animals (MPTP). The format is in vivo, mouse. The following applies: 0.05, 0.1 and 0.3 mg/kg p.o. once daily for two weeks from Day 20, Day 34, FIG. 2.
Test [2] has as its system ICR mice, focal cerebral ischemia (tMCAO). As to the kind of experiment: Cerebral neuroprotection in focal cerebral ischemia model (tMCAO). In kind it is in vivo, mouse. The following applies: tMCAO 2 hours, 0.3 mg/kg orally after reperfusion. As for the experimental part:
Male ICR mice (5 weeks old, 25-30 g) were purchased from Japan SLC, Inc. (Shizuoka, Japan). The animals were reared under constant temperature and humidity conditions, in a 12-hour light/dark cycle (light on: 09:00-21:00), and fed ad libitum. All mice were anesthetized with a combination of 0.3 mg/kg medetomidine, 4.0 mg/kg midazolam, and 5.0 mg/kg butorphanol. A silicone-coated 6-0 suture (Doccol Corporation, USA) was inserted from the right external carotid artery into the internal carotid artery up to the origin of the middle cerebral artery, and left in place for 2 hours, then the suture was removed and reperfusion was performed to prepare a mouse model of focal cerebral ischemia (tMCAO). Mice in the sham surgery group underwent the same treatment except for the insertion of the suture. […] Regional cerebral blood flow (rCBF) was monitored by Laser-Doppler flowmetry (FLOC1, OMEGAWAVE, Tokyo, Japan) to confirm whether the right hemisphere was ischemic or not. […] Infarct volume was measured using ImageJ software and expressed as a percentage of the total hemisphere (corresponding to B in FIG. 19, E in FIG. 21, and H in FIG. 23. The vertical axis Neurological score in C of FIG. 19, F of FIG. 21, and I of FIG. 23 represents the neurological deficit. The vertical axis Survival rate (%) in FIG. 24 corresponds to the mouse survival rate). […]

For another test, the target named is T2, GST-FABP3.
T2 construct: made in house; host or cells: E. coli BL21 (DE3)
T2 sequence (P05413 with tags, fused parts or gaps): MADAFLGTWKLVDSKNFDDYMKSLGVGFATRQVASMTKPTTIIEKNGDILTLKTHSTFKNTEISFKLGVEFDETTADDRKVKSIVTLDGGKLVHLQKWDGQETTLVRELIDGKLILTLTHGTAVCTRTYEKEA
Description: Evaluation of FABP ligand affinity using ANS (GST-FABP3). The following applies: ANS fluorescence displacement; mean±SE of three measurements; read-out: Kd value of FABP for each ligand, GST-FABP3. In kind it is binding, mouse.

A further test addresses T3, GST-FABP4.
T3 construct: made in house; host or cells: E. coli BL21 (DE3)
As to the kind of experiment: Evaluation of FABP ligand affinity using ANS (GST-FABP4). The following applies: ANS fluorescence displacement; mean±SE of three measurements; read-out: Kd value of FABP for each ligand, GST-FABP4. In kind it is binding, mouse. The protocol:
as §1, §2, §3, §4

The next test addresses T4, GST-FABP5.
T4 construct: made in house; host or cells: E. coli BL21 (DE3)
As to the kind of experiment: Evaluation of FABP ligand affinity using ANS (GST-FABP5). The format is binding, mouse. The following applies: ANS fluorescence displacement; mean±SE of three measurements; read-out: Kd value of FABP for each ligand, GST-FABP5. The protocol:
as §1, §2, §3

Test [3] deals with MPTP-treated C57BL6 N mice (PD model animals). Description: Novel object recognition task in PD model animals (MPTP). The format is in vivo, mouse. As to conditions: 0.03, 0.1 and 0.3 mg/kg p.o. once daily for two weeks, Day 34, FIG. 3. The protocol:
In the novel object recognition task, objects of the same shape were placed to be memorized by the mice in the training trial, and in the test trial, one of the objects was replaced with a novel object, and the rate of contact with both objects (corresponding to the vertical axis Discrimination index (%) in FIG. 3) was evaluated.

For test [4] the test system is unchanged. Description: Rotarod task in PD model animals (MPTP). The following applies: Example Compound 2 0.03, 0.1, 0.3 mg/kg or LIGAND 1 0.3 mg/kg, Day 34, 20 rpm, FIG. 4. The format is in vivo, mouse. Background: Falling from the rotarod earlier than controls is read as motor impairment.
Test [5] shares this test system. Description: Beam walking task in PD model animals (MPTP). In kind it is in vivo, mouse. The following applies: Example Compound 2 0.03, 0.1, 0.3 mg/kg or LIGAND 1 0.3 mg/kg, Day 34, FIG. 5. As for the experimental part:
In the beam walking task, the mice were placed on a thin board and allowed to walk, and the number of foot slips before reaching the goal box (corresponding to the vertical axis Number of foot slips in FIG. 5) was measured.

Test [6] concerns dopaminergic neurons (TH+ cells) in SNpc and VTA. Description: Dopaminergic neuroprotection: TH-positive cells in brain sections of PD model animals. The format is in vivo, mouse. The following applies: MPTP mice; Example Compound 2 0.1, 0.3, 1.0 mg/kg or LIGAND 1 0.3 mg/kg; Day 34; FIGS. 6 to 9.
Description: (§5) The results for the substantia nigra region are shown in FIGS. 6, 7, 10, 11, 14, and 15, and for the ventrotegmental area in FIGS. 8, 9, 12, 13, 16, and 17 (the vertical axis Number of TH^+ cells in FIGS. 6 and 8 corresponds to the number of dopaminergic neurons. The vertical axis Number of double-positive cells/TH^+ positive cells (%) in FIGS. 11 and 13 corresponds to the percentage of dopaminergic neurons that contain phosphorylated α-synuclein. The vertical axis Triple-positive cells/TH-positive cells in FIGS. 15 and 17 corresponds to the percentage of dopaminergic neurons that contain both FABP3 and phosphorylated α-synuclein).
Test [7] relates to FABP3 and phosphorylated α-synuclein. Description: Double staining for phosphorylated α-synuclein and FABP3 in dopaminergic neurons of PD model animals. In kind it is in vivo, mouse. The following applies: MPTP mice.
Description: as §5
For test [8], the system named is phosphorylated α-synuclein. As to the kind of experiment: Phosphorylated α-synuclein staining in dopaminergic neurons of PD model animals. The following applies: MPTP mice.
Description: as §5

T4 sequence (Q01469 whole entry): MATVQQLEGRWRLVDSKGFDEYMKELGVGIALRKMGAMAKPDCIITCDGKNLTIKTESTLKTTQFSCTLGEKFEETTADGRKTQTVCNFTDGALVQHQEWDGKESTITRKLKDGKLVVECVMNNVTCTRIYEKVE
T3 sequence (P15090 whole entry): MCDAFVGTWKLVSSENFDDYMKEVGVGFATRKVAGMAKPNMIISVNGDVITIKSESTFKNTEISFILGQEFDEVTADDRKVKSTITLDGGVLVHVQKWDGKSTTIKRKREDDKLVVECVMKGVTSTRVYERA

Consider `O=C(O)CCCOc1ccc(F)cc1-c1cc(-c2ccccc2C(F)(F)F)n(-c2ccccc2)n1` [Example Compound 1, 4-(4-fluoro-2-(1-phenyl-5-(2-(trifluoromethyl)phenyl)-1H-pyrazol-3-yl)phenoxy)butanoic acid], for which the Kd at GST-FABP7 was at least 1000 µM. For the same molecule, the “Passive avoidance task: time until entering the dark room (Latency)” value in test [1] was “concentration-dependent prolongation of the waiting time”. The “Mouse survival rate compared to Vehicle mice” value in [2] (FIG. 24) was “improved”. In test [2] (TTC staining), the “Cerebral infarct volume compared to Vehicle mice” value is “reduced”.

As for `O=C(O)CCCOc1ccccc1-c1cc(-c2ccccc2C(F)(F)F)n(-c2ccccc2)n1` [Example Compound 2, 4-(2-(1-phenyl-5-(2-(trifluoromethyl)phenyl)-1H-pyrazol-3-yl)phenoxy)butanoic acid], the Kd at GST-FABP3 is 0.0117 ± 0.0188 µM; on GST-FABP4, 0.104 ± 0.0363 µM; at GST-FABP5, 0.189 ± 0.0245 µM; on GST-FABP7, 2.05 ± 0.0352 µM. Further, in test [3], the “Novel object recognition task: rate of contact with novel and known objects (Discrimination index)” value was “trend of improvement in cognitive function”. Moreover, the “Rotarod task: time until the mice fell (Latency), motor function” value in test [4] is given as “improvement in motor function was confirmed”. Moreover, the “Beam walking task: number of foot slips, motor function” value in [5] is “improvement in motor function was confirmed”. The “Number of TH+ cells (dopaminergic neurons) in SNpc and VTA” value in [6] is given as “suppresses the decrease in dopaminergic neurons”. Further, in test [7] (0.1, 0.3, 1.0 mg/kg, Day 34, SNpc and VTA, FIGS. 14 to 17), the “Localization of FABP3 and phosphorylated α-synuclein in dopaminergic neurons” value is reported as “reduced”. For the same molecule, the “Interaction between phosphorylated α-synuclein and FABP3 in dopaminergic neurons, substantia nigra (SNpc)” value in [7] (brain sections of SNpc, FIG. 15) is recorded as “inhibited”. In addition, in [7] (brain sections of VTA, FIG. 17), the “Interaction between phosphorylated α-synuclein and FABP3 in dopaminergic neurons, ventrotegmental area (VTA)” value was “inhibited”. For the same molecule, in test [8] (0.1, 0.3, 1.0 mg/kg, Day 34, SNpc and VTA, FIGS. 10 to 13), the “Phosphorylation level of α-synuclein in dopaminergic neurons” value is “reduced”. Also, the “Protection of dopaminergic neurons from the toxicity of phosphorylated α-synuclein, substantia nigra (SNpc)” value in test [8] (brain sections of SNpc, FIG. 11) was “protected dopaminergic neurons”. Moreover, the “Protection of dopaminergic neurons from the toxicity of phosphorylated α-synuclein, ventrotegmental area (VTA)” value in [8] (brain sections of VTA, FIG. 13) is on record as “protected dopaminergic neurons”.

For the molecule `O=C(O)CCCOc1ccccc1-c1nc(-c2ccccc2C(F)(F)F)n(-c2ccccc2)n1` [Example Compound 3, 4-(2-(1-phenyl-5-(2-(trifluoromethyl)phenyl)-1H-1,2,4-triazol-3-yl)phenoxy)butanoic acid], the Kd at GST-FABP3 is 0.16 ± 0.0341 µM; on GST-FABP4, 0.369 ± 0.0441 µM; at GST-FABP7, at least 1000 µM.

In the case of `CC(C)c1ccc(-n2nc(-c3cc(F)ccc3OCCCC(=O)O)cc2-c2ccccc2C(F)(F)F)cc1` [Example Compound 4, 4-(4-fluoro-2-(1-(4-isopropylphenyl)-5-(2-(trifluoromethyl)phenyl)-1H-pyrazol-3-yl)phenoxy)butanoic acid], the Kd at GST-FABP3 is 0.113 ± 0.0031 µM; at GST-FABP4 it was 2.18 ± 0.458 µM; on GST-FABP5, 1.35 ± 0.204 µM; on GST-FABP7, at least 1000 µM.

On to `CC(C)c1ccc(-n2nc(-c3ccccc3OCCCC(=O)O)cc2-c2ccccc2C(F)(F)F)cc1` [Example Compound 5, 4-(2-(1-(4-isopropylphenyl)-5-(2-(trifluoromethyl)phenyl)-1H-pyrazol-3-yl)phenoxy)butanoic acid], for which the Kd was 0.0548 ± 0.0045 µM at GST-FABP3, 0.434 ± 0.0109 µM on GST-FABP4, 1.82 ± 0.392 µM on GST-FABP5 and at least 1000 µM on GST-FABP7.
